Assay results from patent publication US20240216401A1, “COMBINATION THERAPY BY USING AKR1C3-ACTIVATED COMPOUND WITH IMMUNE CHECKPOINT INHIBITOR” (OBI Pharma, Inc., priority 2021, published 2024).
Where “and” joins values, the source holds several entries; their conditions need not be identical. Identical values can stand only once.

Test system: CTL cells (CD45^+CD8^+ T cells) in tumor-infiltrating lymphocytes
Test: Example 2: flow cytometry, percentage of CTL cells in TILs
Type: in vivo, Mus musculus
Protocol: Mice were sacrificed by CO2 euthanasia at the end of the study duration, and the connective tissue around tumor was resected. The tumor samples were then weighed and cut equally into three sections if the tumor weight over 400 mg. The tumor tissue was prepared for the isolation of tumor-infiltrating lymphocytes (TILs). The rest of one section was fixed in 10% formaldehyde and embedded in paraffin; the other was stored at a temperature below −70° C.
The tumor samples were dissected into smaller fragments using scalpels and then digested with a cocktail of collagenase, DNase I, and Hyaluronidase (Collagenase #C5138, DNase I #D5025, Hyaluronidase #H6254, SigmaAldrich) for at least 2 hours.
Cells were stained with the fluorescently conjugated surface antibodies and incubated for 30 minutes at 4° C., and then resuspended in staining buffer for flow cytometric analysis. Flow cytometry was done using a Navios EX Flow Cytometer (Beckman Coulter). Data were analyzed using the Kaluza Analysis Software (Beckman Coulter).

In the case of `C[C@H](OP(=O)(N1CC1)N1CC1)c1ccc([N+](=O)[O-])c(Oc2cccc(C(=O)N(C)C)c2)c1` [OBI-3424, (S)-1-(3-(3-N,N-dimethylaminocarbonyl)phenoxyl-4-mtrophenyl)-1-ethyl-N,N′-bis(ethylene)phosphoramidate], the “CTL cells (CD45^+CD8^+ T cells) in TILs” value (Example 2, mean±SEM, OBI-3424 1 mg/kg, alone (G3) or with anti-hPD-1 (G6), vehicle 15.53±5.66%) is reported as 33.50±3.38%, the “CD25^+ CTL cells (CD45^+ CD8^+CD25^+) Cell count (×10^5)” value (shortened to “CD25^+ CTL cells … (×10^5)”) (G2: 0.3 mg/kg, group mean) is reported as 2.93 ×10^5 and the “CD25^+ CTL cells (CD45^+CD8^+ CD25^+) CTL Gated %” value (G2: 0.3 mg/kg, group mean) is reported as 5.60%. For the same compound, the “CD25^+ CTL cells (CD45^+CD8^+ CD25^+) Total %” value (G2: 0.3 mg/kg, group mean) was 1.33%, the “CD69^+ CTL cells (CD45^+ CD8^+CD69^+) CTL Gated %” value (G2: 0.3 mg/kg, group mean) was 69.71% and the “CD69^+ CTL cells (CD45^+ CD8^+CD69^+) Cell count (×10^5)” value (“CD69^+ CTL cells … (×10^5)” below) (G2: 0.3 mg/kg, group mean) was 40.97 ×10^5. The “CD69^+ CTL cells (CD45^+ CD8^+CD69^+) Total %” value (G2: 0.3 mg/kg, group mean) was 20.23%, the “CTL cells (CD45^+CD8^+) CD45^+ Gated %” value (G2: 0.3 mg/kg, group mean) was 60.54% and the “CTL cells (CD45^+CD8^+) Cell count (×10^5)” value (G2: 0.3 mg/kg, group mean) was 55.19 ×10^5. For the same compound, the “CTL cells (CD45^+CD8^+) Total %” value (G2: 0.3 mg/kg, group mean) was 26.12%, the “Granzyme B^+ CTL cells (CD45^+ CD8^+GrB+) CTL Gated %” value (G2: 0.3 mg/kg, group mean) was 90.76% and the “Granzyme B^+ CTL cells (CD45^+ CD8^+GrB+) Cell count (×10^5)” value (from here on “Granzyme B^+ CTL cells … (×10^5)”) (G2: 0.3 mg/kg, group mean) was 61.54 ×10^5. The “Granzyme B^+ CTL cells (CD45^+ CD8^+GrB+) Total %” value (G2: 0.3 mg/kg, group mean) was 26.31%, the “IFN-γ^+ CTL cells (CD45^+ CD8^+ IFN-γ^+) CTL Gated %” value (G2: 0.3 mg/kg, group mean) was 0.89% and the “IFN-γ^+ CTL cells (CD45^+ CD8^+ IFN-γ^+) Cell count (×10^5)” value (G2: 0.3 mg/kg, group mean) was 0.47 ×10^5. For the same compound, the “IFN-γ^+ CTL cells (CD45^+ CD8^+ IFN-γ^+) Total %” value (G2: 0.3 mg/kg, group mean) was 0.20%, the “PD-1^+ CTL cells (CD45^+CD8^+ PD-1^+) CTL Gated %” value (G2: 0.3 mg/kg, group mean) was 75.96% and the “PD-1^+ CTL cells (CD45^+CD8^+ PD-1^+) Cell count (×10^5)” value (G2: 0.3 mg/kg, group mean) was 42.52 ×10^5. The “PD-1^+ CTL cells (CD45^+CD8^+ PD-1^+) Total %” value (G2: 0.3 mg/kg, group mean) was 18.42%, the “CD25^+ CTL cells … (×10^5)” value (G2: 0.3 mg/kg, individual mice) was 1.91 ×10^5 and 3.89 ×10^5 and 7.72 ×10^5 and 0.35 ×10^5 and 3.13 ×10^5 and 0.58 ×10^5 and the “CD25^+ CTL cells (CD45^+CD8^+ CD25^+) CTL Gated %” value (G2: 0.3 mg/kg, individual mice) was 11.79% and 5.81% and 3.87% and 3.93% and 4.86% and 3.31%. The “CD25^+ CTL cells (CD45^+CD8^+ CD25^+) Total %” value (G2: 0.3 mg/kg, individual mice) was 0.98% and 1.90% and 1.43% and 1.62% and 1.27% and 0.80%, the “CD69^+ CTL cells (CD45^+ CD8^+CD69^+) CTL Gated %” value (G2: 0.3 mg/kg, individual mice) was 62.46% and 73.01% and 61.79% and 85.14% and 68.69% and 67.19% and the “CD69^+ CTL cells … (×10^5)” value (G2: 0.3 mg/kg, individual mice) was 10.13 ×10^5 and 48.79 ×10^5 and 123.34 ×10^5 and 7.53 ×10^5 and 44.17 ×10^5 and 11.85 ×10^5. For the same compound, the “CD69^+ CTL cells (CD45^+ CD8^+CD69^+) Total %” value (G2: 0.3 mg/kg, individual mice) was 5.21% and 23.86% and 22.84% and 35.19% and 17.92% and 16.34%, the “CTL cells (CD45^+CD8^+) CD45^+ Gated %” value (G2: 0.3 mg/kg, individual mice) was 43.92% and 72.25% and 73.64% and 66.97% and 60.34% and 46.12% and the “CTL cells (CD45^+CD8^+) Cell count (×10^5)” value (G2: 0.3 mg/kg, individual mice) was 15.97 ×10^5 and 54.79 ×10^5 and 171.72 ×10^5 and 9.75 ×10^5 and 66.26 ×10^5 and 12.67 ×10^5. The “CTL cells (CD45^+CD8^+) Total %” value (G2: 0.3 mg/kg, individual mice) was 8.21% and 26.79% and 31.80% and 45.54% and 26.88% and 17.47%, the “Granzyme B^+ CTL cells (CD45^+ CD8^+GrB+) CTL Gated %” value (G2: 0.3 mg/kg, individual mice) was 66.16% and 97.44% and 95.50% and 85.88% and 99.84% and 99.74% and the “Granzyme B^+ CTL cells … (×10^5)” value (G2: 0.3 mg/kg, individual mice) was 11.61 ×10^5 and 69.08 ×10^5 and 196.18 ×10^5 and 6.59 ×10^5 and 69.09 ×10^5 and 16.66 ×10^5. For the same compound, the “Granzyme B^+ CTL cells (CD45^+ CD8^+GrB+) Total %” value (G2: 0.3 mg/kg, individual mice) was 5.97% and 33.78% and 36.33% and 30.78% and 28.03% and 22.98%, the “IFN-γ^+ CTL cells (CD45^+ CD8^+ IFN-γ^+) CTL Gated %” value (G2: 0.3 mg/kg, individual mice) was 2.04% and 0.66% and 0.54% and 0.36% and 1.10% and 0.64% and the “IFN-γ^+ CTL cells (CD45^+ CD8^+ IFN-γ^+) Cell count (×10^5)” value (G2: 0.3 mg/kg, individual mice) was 0.35 ×10^5 and 0.47 ×10^5 and 1.08 ×10^5 and 0.03 ×10^5 and 0.76 ×10^5 and 0.11 ×10^5. For the same compound, the “IFN-γ^+ CTL cells (CD45^+ CD8^+ IFN-γ^+) Total %” value (G2: 0.3 mg/kg, individual mice) was 0.18% and 0.23% and 0.20% and 0.13% and 0.31% and 0.15%, the “PD-1^+ CTL cells (CD45^+CD8^+ PD-1^+) CTL Gated %” value (G2: 0.3 mg/kg, individual mice) was 95.86% and 68.60% and 72.47% and 49.67% and 96.18% and 73.00% and the “PD-1^+ CTL cells (CD45^+CD8^+ PD-1^+) Cell count (×10^5)” value (G2: 0.3 mg/kg, individual mice) was 15.31 ×10^5 and 37.59 ×10^5 and 124.42 ×10^5 and 4.84 ×10^5 and 63.74 ×10^5 and 9.24 ×10^5. The “PD-1^+ CTL cells (CD45^+CD8^+ PD-1^+) Total %” value (G2: 0.3 mg/kg, individual mice) was 7.87% and 18.38% and 23.04% and 22.62% and 25.86% and 12.75%, the “CD25^+ CTL cells … (×10^5)” value (G3: 1 mg/kg, group mean) was 1.33 ×10^5 and the “CD25^+ CTL cells (CD45^+CD8^+ CD25^+) CTL Gated %” value (G3: 1 mg/kg, group mean) was 5.25%. For the same compound, the “CD25^+ CTL cells (CD45^+CD8^+ CD25^+) Total %” value (G3: 1 mg/kg, group mean) was 1.71%, the “CD69^+ CTL cells (CD45^+ CD8^+CD69^+) CTL Gated %” value (G3: 1 mg/kg, group mean) was 71.92% and the “CD69^+ CTL cells … (×10^5)” value (G3: 1 mg/kg, group mean) was 18.65 ×10^5. For the same compound, the “CD69^+ CTL cells (CD45^+ CD8^+CD69^+) Total %” value (G3: 1 mg/kg, group mean) was 25.02%, the “CTL cells (CD45^+CD8^+) CD45^+ Gated %” value (G3: 1 mg/kg, group mean) was 55.81% and the “CTL cells (CD45^+CD8^+) Cell count (×10^5)” value (G3: 1 mg/kg, group mean) was 25.42 ×10^5. For the same compound, the “CTL cells (CD45^+CD8^+) Total %” value (G3: 1 mg/kg, group mean) was 33.50%, the “Granzyme B^+ CTL cells (CD45^+ CD8^+GrB+) CTL Gated %” value (G3: 1 mg/kg, group mean) was 88.17% and the “Granzyme B^+ CTL cells … (×10^5)” value (G3: 1 mg/kg, group mean) was 23.13 ×10^5. For the same compound, the “Granzyme B^+ CTL cells (CD45^+ CD8^+GrB+) Total %” value (G3: 1 mg/kg, group mean) was 30.40%.
